In brackets after ≈: the same amount, converted by molar mass.
Tests used:
Assay type in all cases: functional
Aspergillus fumigatus = experiment: Antifungal activity against Aspergillus fumigatus MTCC 3008 assessed as growth inhibition after overnight incubation by NCCLS broth microdilution method
Candida albicans = experiment: Antifungal activity against Candida albicans MTCC 227 assessed as growth inhibition after overnight incubation by NCCLS broth microdilution method
Bacillus subtilis = experiment: Antibacterial activity against Bacillus subtilis MTCC 441 assessed as growth inhibition after overnight incubation by NCCLS broth microdilution method
Vibrio cholerae = experiment: Antibacterial activity against Vibrio cholerae MTCC 3906 assessed as growth inhibition after overnight incubation by NCCLS broth microdilution method
Streptococcus pneumoniae = experiment: Antibacterial activity against Streptococcus pneumoniae MTCC 1936 assessed as growth inhibition after overnight incubation by NCCLS broth microdilution method
Salmonella typhi = experiment: Antibacterial activity against Salmonella enterica subsp. enterica serovar Typhi MTCC 98 assessed as growth inhibition after overnight incubation by NCCLS broth microdilution method
Escherichia coli = experiment: Antibacterial activity against Escherichia coli MTCC 443 assessed as growth inhibition after overnight incubation by NCCLS broth microdilution method
Clostridium tetani = experiment: Antibacterial activity against Clostridium tetani MTCC 449 assessed as growth inhibition after overnight incubation by NCCLS broth microdilution method

CCOC(=O)C1=C(N)N(Nc2ccccc2)C2=C(C(=O)CC(C)(C)C2)C1c1cc2cc(Cl)ccc2nc1Cl (stereo not drawn)
MIC (Aspergillus fumigatus): 250 µg/mL (≈ 453 µM) | MIC (Candida albicans): 1000 µg/mL (≈ 1810 µM) | MIC (Bacillus subtilis): 200 µg/mL (≈ 363 µM) | MIC (Vibrio cholerae): 100 µg/mL (≈ 181 µM) | MIC (Streptococcus pneumoniae): 100 µg/mL (≈ 181 µM) | MIC (Salmonella typhi): 250 µg/mL (≈ 453 µM) | MIC (Escherichia coli): 125 µg/mL (≈ 227 µM) | MIC (Clostridium tetani): 200 µg/mL (≈ 363 µM)

CCOC(=O)C1=C(N)N(Nc2ccc(Cl)cc2)C2=C(C(=O)CC(C)(C)C2)C1c1cc2cc(Cl)ccc2nc1Cl (stereo not drawn)
MIC (Aspergillus fumigatus): 500 µg/mL (≈ 853 µM) | MIC (Candida albicans): 1000 µg/mL (≈ 1710 µM) | MIC (Bacillus subtilis): 500 µg/mL (≈ 853 µM) | MIC (Vibrio cholerae): 250 µg/mL (≈ 427 µM) | MIC (Streptococcus pneumoniae): 500 µg/mL (≈ 853 µM) | MIC (Salmonella typhi): 250 µg/mL (≈ 427 µM) | MIC (Escherichia coli): 250 µg/mL (≈ 427 µM) | MIC (Clostridium tetani): 250 µg/mL (≈ 427 µM)

CCOC(=O)C1=C(N)N(Nc2ccc(F)cc2)C2=C(C(=O)CC(C)(C)C2)C1c1cc2cc(C)ccc2nc1Cl (stereo not drawn)
MIC (Aspergillus fumigatus): > 1000 µg/mL | MIC (Candida albicans): 100 µg/mL (≈ 182 µM) | MIC (Bacillus subtilis): 200 µg/mL (≈ 364 µM) | MIC (Vibrio cholerae): 100 µg/mL (≈ 182 µM) | MIC (Streptococcus pneumoniae): 200 µg/mL (≈ 364 µM) | MIC (Salmonella typhi): 200 µg/mL (≈ 364 µM) | MIC (Escherichia coli): 100 µg/mL (≈ 182 µM) | MIC (Clostridium tetani): 100 µg/mL (≈ 182 µM)

O=C(N[C@H](CO)[C@H](O)c1ccc([N+](=O)[O-])cc1)C(Cl)Cl [CHLORAMPHENICOL]
MIC (Bacillus subtilis): 50 µg/mL (≈ 155 µM) | MIC (Vibrio cholerae): 50 µg/mL (≈ 155 µM) | MIC (Streptococcus pneumoniae): 50 µg/mL (≈ 155 µM) | MIC (Salmonella typhi): 50 µg/mL (≈ 155 µM) | MIC (Escherichia coli): 50 µg/mL (≈ 155 µM) | MIC (Clostridium tetani): 50 µg/mL (≈ 155 µM)

GENTAMICIN
MIC (Bacillus subtilis): 1 µg/mL | MIC (Vibrio cholerae): 5 µg/mL | MIC (Streptococcus pneumoniae): 0.5 µg/mL | MIC (Salmonella typhi): 5 µg/mL | MIC (Escherichia coli): 0.05 µg/mL | MIC (Clostridium tetani): 5 µg/mL

CCn1cc(C(=O)O)c(=O)c2cc(F)c(N3CCNCC3)cc21 [NORFLOXACIN]
MIC (Bacillus subtilis): 100 µg/mL (≈ 313 µM) | MIC (Vibrio cholerae): 10 µg/mL (≈ 31.3 µM) | MIC (Streptococcus pneumoniae): 10 µg/mL (≈ 31.3 µM) | MIC (Salmonella typhi): 10 µg/mL (≈ 31.3 µM) | MIC (Escherichia coli): 10 µg/mL (≈ 31.3 µM) | MIC (Clostridium tetani): 50 µg/mL (≈ 157 µM)

COC1=CC(=O)C[C@@H](C)[C@]12Oc1c(Cl)c(OC)cc(OC)c1C2=O [GRISEOFULVIN]
MIC (Aspergillus fumigatus): 100 µg/mL (≈ 283 µM) | MIC (Candida albicans): 500 µg/mL (≈ 1420 µM)

CCOC(=O)C1=C(N)N(Nc2ccc(OC)cc2)C2=C(C(=O)CC(C)(C)C2)C1c1cc2cc(OC)ccc2nc1Cl (stereo not drawn)
MIC (Aspergillus fumigatus): 500 µg/mL (≈ 866 µM) | MIC (Candida albicans): 1000 µg/mL (≈ 1730 µM) | MIC (Bacillus subtilis): 250 µg/mL (≈ 433 µM) | MIC (Vibrio cholerae): 250 µg/mL (≈ 433 µM) | MIC (Streptococcus pneumoniae): 250 µg/mL (≈ 433 µM) | MIC (Salmonella typhi): 200 µg/mL (≈ 347 µM) | MIC (Escherichia coli): 200 µg/mL (≈ 347 µM) | MIC (Clostridium tetani): 250 µg/mL (≈ 433 µM)

CCOC(=O)C1=C(N)N(Nc2ccc(Br)cc2)C2=C(C(=O)CC(C)(C)C2)C1c1cc2cc(Cl)ccc2nc1Cl (stereo not drawn)
MIC (Aspergillus fumigatus): 1000 µg/mL (≈ 1590 µM) | MIC (Candida albicans): 500 µg/mL (≈ 793 µM) | MIC (Bacillus subtilis): 200 µg/mL (≈ 317 µM) | MIC (Vibrio cholerae): 250 µg/mL (≈ 397 µM) | MIC (Streptococcus pneumoniae): 200 µg/mL (≈ 317 µM) | MIC (Salmonella typhi): 100 µg/mL (≈ 159 µM) | MIC (Escherichia coli): 200 µg/mL (≈ 317 µM) | MIC (Clostridium tetani): 250 µg/mL (≈ 397 µM)

CCOC(=O)C1=C(N)N(Nc2ccc(C)cc2)C2=C(C(=O)CC(C)(C)C2)C1c1cc2ccccc2nc1Cl (stereo not drawn)
MIC (Aspergillus fumigatus): > 1000 µg/mL | MIC (Candida albicans): > 1000 µg/mL | MIC (Bacillus subtilis): 500 µg/mL (≈ 942 µM) | MIC (Vibrio cholerae): 125 µg/mL (≈ 235 µM) | MIC (Streptococcus pneumoniae): 250 µg/mL (≈ 471 µM) | MIC (Salmonella typhi): 250 µg/mL (≈ 471 µM) | MIC (Escherichia coli): 250 µg/mL (≈ 471 µM) | MIC (Clostridium tetani): 500 µg/mL (≈ 942 µM)

CCOC(=O)C1=C(N)N(Nc2ccccc2)C2=C(C(=O)CC(C)(C)C2)C1c1cc2cc(C)ccc2nc1Cl (stereo not drawn)
MIC (Aspergillus fumigatus): > 1000 µg/mL | MIC (Candida albicans): 500 µg/mL (≈ 942 µM) | MIC (Bacillus subtilis): 500 µg/mL (≈ 942 µM) | MIC (Vibrio cholerae): 100 µg/mL (≈ 188 µM) | MIC (Streptococcus pneumoniae): 250 µg/mL (≈ 471 µM) | MIC (Salmonella typhi): 250 µg/mL (≈ 471 µM) | MIC (Escherichia coli): 100 µg/mL (≈ 188 µM) | MIC (Clostridium tetani): 500 µg/mL (≈ 942 µM)

CCOC(=O)C1=C(N)N(Nc2ccc(OC)cc2)C2=C(C(=O)CC(C)(C)C2)C1c1cc2cc(Cl)ccc2nc1Cl (stereo not drawn)
MIC (Aspergillus fumigatus): > 1000 µg/mL | MIC (Candida albicans): 1000 µg/mL (≈ 1720 µM) | MIC (Bacillus subtilis): 500 µg/mL (≈ 860 µM) | MIC (Vibrio cholerae): 250 µg/mL (≈ 430 µM) | MIC (Streptococcus pneumoniae): 500 µg/mL (≈ 860 µM) | MIC (Salmonella typhi): 250 µg/mL (≈ 430 µM) | MIC (Escherichia coli): 250 µg/mL (≈ 430 µM) | MIC (Clostridium tetani): 250 µg/mL (≈ 430 µM)

CCOC(=O)C1=C(N)N(Nc2ccccc2)C2=C(C(=O)CC(C)(C)C2)C1c1cc2cc(OC)ccc2nc1Cl (stereo not drawn)
MIC (Aspergillus fumigatus): > 1000 µg/mL | MIC (Candida albicans): > 1000 µg/mL | MIC (Bacillus subtilis): 200 µg/mL (≈ 366 µM) | MIC (Vibrio cholerae): 250 µg/mL (≈ 457 µM) | MIC (Streptococcus pneumoniae): 200 µg/mL (≈ 366 µM) | MIC (Salmonella typhi): 250 µg/mL (≈ 457 µM) | MIC (Escherichia coli): 250 µg/mL (≈ 457 µM) | MIC (Clostridium tetani): 250 µg/mL (≈ 457 µM)

CCOC(=O)C1=C(N)N(Nc2ccc(Br)cc2)C2=C(C(=O)CC(C)(C)C2)C1c1cc2ccccc2nc1Cl (stereo not drawn)
MIC (Aspergillus fumigatus): > 1000 µg/mL | MIC (Candida albicans): > 1000 µg/mL | MIC (Bacillus subtilis): 250 µg/mL (≈ 420 µM) | MIC (Vibrio cholerae): 500 µg/mL (≈ 839 µM) | MIC (Streptococcus pneumoniae): 25 µg/mL (≈ 42 µM) | MIC (Salmonella typhi): 50 µg/mL (≈ 83.9 µM) | MIC (Escherichia coli): 100 µg/mL (≈ 168 µM) | MIC (Clostridium tetani): 500 µg/mL (≈ 839 µM)

CCOC(=O)C1=C(N)N(Nc2ccc(F)cc2)C2=C(C(=O)CC(C)(C)C2)C1c1cc2cc(Cl)ccc2nc1Cl (stereo not drawn)
MIC (Aspergillus fumigatus): > 1000 µg/mL | MIC (Candida albicans): 1000 µg/mL (≈ 1760 µM) | MIC (Bacillus subtilis): 500 µg/mL (≈ 878 µM) | MIC (Vibrio cholerae): 500 µg/mL (≈ 878 µM) | MIC (Streptococcus pneumoniae): 500 µg/mL (≈ 878 µM) | MIC (Salmonella typhi): 250 µg/mL (≈ 439 µM) | MIC (Escherichia coli): 200 µg/mL (≈ 351 µM) | MIC (Clostridium tetani): 250 µg/mL (≈ 439 µM)
